Patent publication US20030203819A1, “Synergistically acting herbicidal mixtures” (priority 1998, published 2003)

Assays:
Assay type in all cases: in vivo
Veronica ssp. = experiment: Herbicidal action in the greenhouse (post-emergence treatment); conditions: S-Metolachlor 125 g/ha a.s.
Text: (§1) The mixtures according to the invention were applied pre- or post-emergence (foliar treatment). The herbicidal compounds of component B were applied in the formulation in which they are present as commercially available product.
(§2) Some of the experiments were greenhouse experiments and some were field trials on mini plots (on a site with sandy loam (pH 6.2 to 7.0) or sandy clay (pH 5.0 to 6.7) as the soil).
(§3) The harmful plants differed with regard to size and developmental state; on average, they were 5 to 20 cm long, depending on the growth habit.
(§4) The herbicidally active compounds of components A) and B) were applied in succession or jointly, in the latter case in some cases as a tank mix and in some cases as a readymix, in the form of emulsions, aqueous solutions or suspensions, the vehicle being water ([…]). In the case of the field trials, application was effected with the aid of a mobile plot sprayer.
(§5) The test period extended over 3 to 8 weeks, and the stands were also observed at later points in time.
(§6) Damage by the herbicidal compositions was evaluated with reference to a scale of 0% to 100% in comparison with untreated control plots. 0 means no damage and 100 means complete destruction of the plants.
(§7) In these examples, the value E at which only an additive effect of the individual active ingredients is to be expected was calculated by the method of S. R. Colby (Calculating synergistic and antagonistic responses of herbicide combinations, Weeds 15, 20 pp (1967).

Ipomoea ssp. = experiment: as above; conditions: S-Metolachlor 62.5 g/ha a.s.
Text: as §1, §2, §3, §4, §5, §6, §7

Zea mays = experiment: Phytotoxicity to crop plant in the greenhouse (post-emergence treatment); conditions: Table 84, S-Metolachlor 125 g/ha a.s.
Text: as §1, §2, §4, §5, §6, §7

Echinochloa crus-galli = experiment: Herbicidal action in the greenhouse (pre-emergence treatment); conditions: S-Metolachlor 62.5 g/ha a.s.
Text: as §1, §2, §3, §4, §5, §6, §7

Setaria viridis = experiment: as above; conditions: S-Metolachlor 62.5 g/ha a.s.
Text: as §1, §2, §3, §4, §5, §6, §7

Digitaria sanguinalis = experiment: as above; conditions: S-Metolachor 125 g/ha a.s.
Text: as §1, §2, §3, §4, §5, §6, §7

Cyperus iria = experiment: Herbicidal action in the field (post-emergence treatment); conditions: benthiocarb 3000 g/ha a.s.
Text: as §1, §2, §3, §4, §5, §6, §7

Sorghum bicolor = experiment: as above; conditions: dicamba 560 g/ha a.s.
Text: as §1, §2, §3, §4, §5, §6, §7

Amaranthus retroflexus = experiment: as above; conditions: dicamba 280 g/ha a.s.
Text: as §1, §2, §3, §4, §5, §6, §7

Lolium perenne = experiment: as above; conditions: paraquat-dichloride 400 g/ha a.s.
Text: as §1, §2, §3, §4, §5, §6, §7

SMILES: CCc1cccc(C)c1N(C(=O)CCl)[C@@H](C)COC [S-Metolachlor, S-metolachlor, reference compound]
- Damage (Veronica ssp.): 0%
- Damage (Ipomoea ssp.): 0%
- Phytotoxicity (%) (Zea mays): 0%
- Damage (Echinochloa crus-galli): 65%
- Damage (Setaria viridis): 70%
- Damage (Digitaria sanguinalis): 50%

SMILES: CCN(CC)C(=O)SCc1ccc(Cl)cc1 [benthiocarb]
- Damage (Cyperus iria): 50%

SMILES: COc1c(Cl)ccc(Cl)c1C(=O)O [dicamba, reference compound]
- Damage (Sorghum bicolor): 17%
- Damage (Amaranthus retroflexus): 25%

SMILES: C[n+]1ccc(-c2cc[n+](C)cc2)cc1 [paraquat-dichloride, reference compound]
- Damage (Lolium perenne): 97%
